Results reported in US7550469B2, “Heterocyclic amide derivatives and their use as dopamine D3 receptor ligands” (Aventis Pharmaceuticals Inc., priority 2001, dated 2009).
Read-outs that look alike come from different tables or passages of the source. One block for each compound: values may come before it.

Molecular target: T1, cloned human dopamine D3 receptors (Homo sapiens, UniProt P35462)
T1 construct: expressed in transfected cells; membrane homogenate
Experiment: [N-Methyl-3H]Spiroperidol binding to cloned human dopamine D3 receptors (Protocol 1)
How it was run: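 Membranes from CHO cells stably expressing cloned human D3 receptor were used for [N-methyl-3H]spiroperidol (60-90 Ci/mmol) binding. Assay buffer was 0.05 M Tris HCl pH 7.7 with 120 mM NaCl, 5 mM KCl, 2 mM CaCl2 and 1 mM MgCl2, optionally 0.1% ascorbic acid; total ligand concentration calculated from added CPM.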

[1] = the 22nd table, read-out: D3 Ki
[2] = the 17th table, read-out: D3 Ki
[3] = the 24th table, read-out: D3 Ki
[4] = the 23rd table, read-out: D3 Ki
[5] = the 26th table, read-out: D3 Ki

T1 sequence (P35462 whole entry): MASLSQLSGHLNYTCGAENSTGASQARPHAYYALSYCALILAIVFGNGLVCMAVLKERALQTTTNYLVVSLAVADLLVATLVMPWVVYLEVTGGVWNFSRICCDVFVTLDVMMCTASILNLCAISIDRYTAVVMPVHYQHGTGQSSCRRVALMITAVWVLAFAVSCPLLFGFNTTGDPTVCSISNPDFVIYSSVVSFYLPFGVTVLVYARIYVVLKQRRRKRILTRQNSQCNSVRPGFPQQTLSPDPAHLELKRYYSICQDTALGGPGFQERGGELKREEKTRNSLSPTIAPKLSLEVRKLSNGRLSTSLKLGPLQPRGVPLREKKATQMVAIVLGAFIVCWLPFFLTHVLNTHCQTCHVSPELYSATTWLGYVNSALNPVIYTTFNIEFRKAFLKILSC

Ki (Table 2, read-out: D3K1): 246 nM
SMILES: CC(=O)C1CC(CC(=O)NC/C=C/CN2CCN(c3csc4cc(C(F)(F)F)ccc34)CC2)C1(C)C (stereo not shown) [compound 827741]

Ki (Table 2, read-out: D3K1): 21.3 nM
SMILES: O=C(NC/C=C/CN1CCN(c2csc3cc(C(F)(F)F)ccc23)CC1)c1cc2ccccc2[nH]1 [compound 827742]

Ki [1]: 515 nM
SMILES: O=C(NCCCCN1CCN(c2noc3ccsc23)CC1)c1cccc(C(F)(F)F)c1 [compound 829673]

Ki [1]: 90.2 nM
SMILES: O=C(NCCCCN1CCN(c2noc3ccsc23)CC1)c1ccc(F)cc1 [compound 829674]

Ki [1]: 38.9 nM
SMILES: O=C(NCCCCN1CCN(c2noc3ccsc23)CC1)c1ccc(Cl)cc1 [compound 829675]

Ki [1]: 96.6 nM
SMILES: O=C(NCCCCN1CCN(c2noc3ccsc23)CC1)c1ccc(C(F)(F)F)cc1 [compound 829677]

Ki [1]: 275 nM
SMILES: O=C(NCCCCN1CCN(c2noc3ccsc23)CC1)c1cc(Cl)cc(Cl)c1 [compound 829678]

Ki [1]: 14.7 nM
SMILES: O=C(NCCCCN1CCN(c2noc3ccsc23)CC1)c1ccc(-c2ccccc2)cc1 [compound 829680]

Ki [1]: 17.7 nM
SMILES: O=C(NCCCCN1CCN(c2noc3ccsc23)CC1)c1cc2ccccc2s1 [compound 829681]

Ki [1]: 18.9 nM
SMILES: O=C(NCCCCN1CCN(c2noc3ccsc23)CC1)c1cc2ccccc2[nH]1 [compound 829682]

Ki [1]: 37.5 nM
SMILES: O=C(NCCCCN1CCN(c2noc3ccsc23)CC1)c1ccc2[nH]ccc2c1 [compound 829683]

Ki [1]: 149 nM
SMILES: CCCCc1ccc(C(=O)NCCCCN2CCN(c3noc4ccsc34)CC2)cc1 [compound 829685]

Ki [1]: 42.1 nM
SMILES: N#Cc1ccc(C(=O)NCCCCN2CCN(c3noc4ccsc34)CC2)cc1 [compound 829686]

Ki [1]: 50.3 nM
SMILES: O=C(NCCCCN1CCN(c2noc3ccsc23)CC1)c1cccs1 [compound 829687]

Ki [1]: 673 nM
SMILES: O=C(NCCCCN1CCN(c2noc3ccsc23)CC1)c1cnc2ccccc2n1 [compound 829688]

Ki [1]: 151 nM
SMILES: O=C(NCCCCN1CCN(c2noc3ccsc23)CC1)c1cc(C(F)(F)F)ccc1F [compound 829691]

Ki [1]: 63.8 nM
SMILES: Cc1csc2c(N3CCN(CCCCNC(=O)CCCc4ccccc4)CC3)noc12 [compound 830748]

Ki [2]: 3.21 nM
SMILES: O=C(Cc1ccccc1)NC[C@@H]1CC1CN1CCCN(c2csc3cc(F)ccc23)CC1 (stereo partly shown) [compound 831203]

Ki [2]: 5.05 nM
SMILES: O=C(Cc1ccccc1)NC[C@@H]1CC1CN1CCCN(c2csc3cc(F)ccc23)CC1 (stereo partly shown) [compound 831204]

Ki [3]: 36.3 nM
SMILES: O=S(=O)(NCC1CC1CN1CCC(c2noc3ccsc23)CC1)c1ccc(F)cc1 (stereo not shown) [compound 831363]

Ki [3]: 113 nM
SMILES: CC(C)S(=O)(=O)NCC1CC1CN1CCC(c2noc3ccsc23)CC1 (stereo not shown) [compound 831366]

Ki [3]: 43.3 nM
SMILES: COc1ccc(S(=O)(=O)NCC2CC2CN2CCC(c3noc4ccsc34)CC2)cc1 (stereo not shown) [compound 831464]

Ki [3]: 28.1 nM
SMILES: COc1ccc(S(=O)(=O)NCC2CC2CN2CCN(c3csc4cc(C(F)(F)F)ccc34)CC2)cc1 (stereo not shown) [compound 831500]

Ki [3]: 53.9 nM
SMILES: CC(C)(C)c1ccc(S(=O)(=O)NCC2CC2CN2CCC(c3noc4ccsc34)CC2)cc1 (stereo not shown) [compound 831512]

Ki [3]: 65.5 nM
SMILES: O=S(=O)(NCC1CC1CN1CCC(c2noc3ccsc23)CC1)c1ccc(OC(F)(F)F)cc1 (stereo not shown) [compound 831513]

Ki [3]: 195 nM
SMILES: O=S(=O)(NCC1CC1CN1CCN(c2csc3cc(C(F)(F)F)ccc23)CC1)c1ccc(OC(F)(F)F)cc1 (stereo not shown) [compound 831592]

Ki [3]: 186 nM
SMILES: CCCCS(=O)(=O)NCC1CC1CN1CCN(c2csc3cc(C(F)(F)F)ccc23)CC1 (stereo not shown) [compound 831636]

SMILES: COc1ccc(OC(=O)NCC2CC2CN2CCC(c3noc4ccsc34)CC2)cc1 (stereo not shown) [compound 831671]
Ki (D3 Ki (nM), the 25th table): 96.4 nM

Ki (the 25th table, read-out: D3 Ki): 29.3 nM
SMILES: CCCCOC(=O)NCC1CC1CN1CCC(c2noc3ccsc23)CC1 (stereo not shown) [compound 831696]

SMILES: O=C(NCC1CC1CN1CCC(c2noc3ccsc23)CC1)Oc1ccc(F)cc1 (stereo not shown) [compound 831697]
Ki (D3 Ki (nM), the 25th table): 8.35 nM

SMILES: Cc1ccc(OC(=O)NCC2CC2CN2CCC(c3noc4ccsc34)CC2)cc1 (stereo not shown) [compound 831698]
Ki (D3 Ki (nM), the 25th table): 29.4 nM

SMILES: O=C(NCC1CC1CN1CCC(c2noc3ccsc23)CC1)Oc1ccccc1 (stereo not shown) [compound 831699]
Ki (D3 Ki (nM), the 25th table): 3.04 nM

Ki [4]: 12 nM
SMILES: CC[C@H]1CC[C@H](NC[C@@H]2C[C@H]2CN2CCN(c3ccccc3C)CC2)CC1 [compound 831876]

Ki [3]: 277 nM
SMILES: O=S(=O)(CCc1cccc2ccccc12)NCC1CC1CN1CCN(c2csc3cc(C(F)(F)F)ccc23)CC1 (stereo not shown) [compound 831910]

Ki [5]: 90 nM
SMILES: OC(CCN1CCC(c2noc3ccsc23)CC1)CN1CCN(c2ccc(F)cc2)CC1 (stereo not shown) [compound 831939]

Ki [5]: 356 nM
SMILES: OC(CCN1CCC(c2noc3ccsc23)CC1)CN1CCOCC1 (stereo not shown) [compound 831940]

Ki [5]: 161 nM
SMILES: OC(CCN1CCC(c2noc3ccsc23)CC1)CN1CCc2ccccc2C1 (stereo not shown) [compound 831941]

Ki [5]: 264 nM
SMILES: OC(CCN1CCC(c2noc3ccsc23)CC1)CN1CCN(c2ccccc2)CC1 (stereo not shown) [compound 831943]

Ki [5]: 38.5 nM
SMILES: OC(CCN1CCC(c2noc3ccsc23)CC1)CN1CCC(Cc2ccccc2)CC1 (stereo not shown) [compound 831944]

Ki [5]: 700 nM
SMILES: OC(CCN1CCC(c2noc3ccsc23)CC1)CNCCc1ccccc1 (stereo not shown) [compound 831945]

Ki [4]: 13.5 nM
SMILES: C[C@H]1CC[C@H](NC[C@@H]2C[C@H]2CN2CCN(c3csc4cc(C(F)(F)F)ccc34)CC2)CC1 [compound 832209]

Ki [4]: 72.8 nM
SMILES: CCC1CCC(NCC2CC2CN2CCN(c3cc(C)ccc3C)CC2)CC1 (stereo not shown) [compound 832265]

Ki [4]: 29.6 nM
SMILES: CC[C@H]1CC[C@H](NC[C@@H]2C[C@H]2CN2CCN(c3ccc(C)cc3C)CC2)CC1 [compound 832266]

Ki [4]: 33.6 nM
SMILES: C[C@H]1CC[C@H](NC[C@@H]2C[C@H]2CN2CCC(c3noc4c(C(F)(F)F)cccc34)CC2)CC1 [compound 832275]

Ki [4]: 30.3 nM
SMILES: CC(C)CCNC[C@@H]1C[C@H]1CN1CCN(c2csc3cc(C(F)(F)F)ccc23)CC1 [compound 832276]

Ki [4]: 57 nM
SMILES: COc1ccc(NC[C@@H]2C[C@H]2CN2CCN(c3csc4cc(C(F)(F)F)ccc34)CC2)cc1 [compound 832279]

Ki [4]: 19.2 nM
SMILES: CSCCCNC[C@@H]1C[C@H]1CN1CCN(c2csc3cc(C(F)(F)F)ccc23)CC1 [compound 832280]

Ki [4]: 5.59 nM
SMILES: FC(F)(F)c1ccc2c(N3CCN(C[C@@H]4C[C@H]4CNCCc4cccnc4)CC3)csc2c1 [compound 832281]

Ki [4]: 227 nM
SMILES: FC(F)(F)c1ccc2c(N3CCN(C[C@@H]4C[C@H]4CNCCc4ccccc4)CC3)csc2c1 [compound 832322]

Ki [4]: 151 nM
SMILES: CC[C@H]1CC[C@H](NC[C@@H]2C[C@H]2CN2CCN(c3c(Cl)sc4cc(C(F)(F)F)ccc34)CC2)CC1 [compound 832329]

Ki [4]: 36.5 nM
SMILES: FC(F)(F)c1ccc2c(N3CCN(C[C@@H]4C[C@H]4CNC4CCN(CC5CC5)CC4)CC3)csc2c1 [compound 832387]

Ki [4]: 71.9 nM
SMILES: FC(F)(F)c1ccc2c(N3CCN(C[C@@H]4C[C@H]4CNCCSc4ccc(Cl)cc4)CC3)csc2c1 [compound 832388]

Ki [4]: 124 nM
SMILES: CC[C@H]1CC[C@H](NCC2(CCN3CCC(c4noc5ccsc45)CC3)CC2)CC1 [compound 832401]

Ki [4]: 47.6 nM
SMILES: FC(F)(F)c1cccc2c(C3CCN(C[C@@H]4C[C@H]4CNCC45CC6CC(CC(C6)C4)C5)CC3)noc12 [compound 832783]

Ki [4]: 36.5 nM
SMILES: Cc1nc(Cl)c(Cl)n1CCCNC[C@@H]1C[C@H]1CN1CCN(c2csc3cc(C(F)(F)F)ccc23)CC1 [compound 832817]

Ki [4]: 54.9 nM
SMILES: FC(F)(F)Oc1cccc(CNC[C@@H]2C[C@H]2CN2CCN(c3csc4cc(C(F)(F)F)ccc34)CC2)c1 [compound 833067]

Ki [4]: 2.62 nM
SMILES: FC(F)(F)c1ccc2c(N3CCN(C[C@@H]4C[C@H]4CNCCCn4ccnc4)CC3)csc2c1 [compound 833257, (3-imidazol-1-yl-propyl)-{(1R,2R)-2-[4-(6-trifluoromethyl-benzo[b]thiophen-3-yl)-piperazin-1-ylmethyl]-cyclopropylmethyl}-amine]

Ki [4]: 31.9 nM
SMILES: COc1cccc2c(C3CCN(C[C@@H]4C[C@H]4CN[C@H]4CC[C@H](C)CC4)CC3)noc12 [compound 833329]

Ki [4]: 22.9 nM
SMILES: FC(F)(F)c1ccc2c(N3CCN(C[C@@H]4C[C@H]4CN4CCC(n5ccnc5)CC4)CC3)csc2c1 [compound 833349]

Ki [4]: 0.84 nM
SMILES: COc1ccccc1N1CCN(C[C@@H]2C[C@H]2CN2CCN(c3csc4cc(C(F)(F)F)ccc34)CC2)CC1 [compound 833379]

Ki [4]: 112 nM
SMILES: COc1cccc2c(C3CCN(C[C@@H]4C[C@H]4CNCCC(C)(C)C)CC3)noc12 [compound 833433]
